Legend:
[1] = biological target: Mitogen-activated protein kinase kinase kinase 7 (Homo sapiens) (UniProt O43318); assay: Inhibition of human TAK1 at 18.6 nM by HotSpot assay relative to control
[2] = biological target: Serine/threonine-protein kinase PAK 1 (Homo sapiens) (UniProt Q13153); assay: Inhibition of human PAK1 at 18.6 nM by HotSpot assay relative to control
[3] = biological target: T1, Calcium/calmodulin-dependent protein kinase type IV (Homo sapiens) (UniProt Q16566); assay: Inhibition of human CAMK4 at 1.82 nM by HotSpot assay relative to control
T1 sequence (whole entry): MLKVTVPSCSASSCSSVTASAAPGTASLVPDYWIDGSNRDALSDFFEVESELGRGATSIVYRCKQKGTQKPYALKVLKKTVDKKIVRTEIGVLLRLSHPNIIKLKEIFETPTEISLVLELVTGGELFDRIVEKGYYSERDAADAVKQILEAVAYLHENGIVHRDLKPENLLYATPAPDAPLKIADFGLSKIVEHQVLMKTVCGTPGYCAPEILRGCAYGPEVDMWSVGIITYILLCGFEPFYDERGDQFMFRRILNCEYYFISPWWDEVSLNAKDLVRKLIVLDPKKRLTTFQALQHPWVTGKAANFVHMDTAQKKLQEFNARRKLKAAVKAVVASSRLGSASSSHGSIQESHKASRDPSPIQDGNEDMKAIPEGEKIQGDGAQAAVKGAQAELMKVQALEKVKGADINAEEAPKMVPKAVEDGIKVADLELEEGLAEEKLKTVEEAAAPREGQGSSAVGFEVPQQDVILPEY

[4] = biological target: Mitogen-activated protein kinase 14 (Homo sapiens) (UniProt Q16539); assay: Inhibition of human MAPK14 at 1.82 nM by HotSpot assay relative to control
[5] = biological target: T2, Cytoplasmic tyrosine-protein kinase BMX (Homo sapiens) (UniProt P51813); assay: Inhibition of human BMX at 1.82 nM by HotSpot assay relative to control
T2 sequence (whole entry): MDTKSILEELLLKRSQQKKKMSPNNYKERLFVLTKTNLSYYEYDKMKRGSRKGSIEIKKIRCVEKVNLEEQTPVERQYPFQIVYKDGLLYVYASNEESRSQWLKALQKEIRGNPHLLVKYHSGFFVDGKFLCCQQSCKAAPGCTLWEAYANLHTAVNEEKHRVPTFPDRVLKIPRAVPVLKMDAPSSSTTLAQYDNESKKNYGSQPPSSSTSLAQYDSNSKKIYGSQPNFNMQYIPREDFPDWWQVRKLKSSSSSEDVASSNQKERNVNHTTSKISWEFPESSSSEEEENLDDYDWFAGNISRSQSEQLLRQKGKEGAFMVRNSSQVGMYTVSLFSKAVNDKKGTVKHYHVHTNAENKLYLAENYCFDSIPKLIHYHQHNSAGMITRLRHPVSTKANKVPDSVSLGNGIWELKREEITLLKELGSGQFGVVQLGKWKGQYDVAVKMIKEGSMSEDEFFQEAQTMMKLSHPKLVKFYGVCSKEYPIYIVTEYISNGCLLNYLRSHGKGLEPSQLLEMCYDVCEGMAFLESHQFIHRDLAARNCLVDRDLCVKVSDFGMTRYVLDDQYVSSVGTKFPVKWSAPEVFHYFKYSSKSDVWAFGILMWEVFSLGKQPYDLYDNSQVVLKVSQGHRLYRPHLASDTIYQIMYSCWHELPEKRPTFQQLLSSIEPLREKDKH

[6] = biological target: T3, Mitogen-activated protein kinase kinase kinase kinase 2 (Homo sapiens) (UniProt Q12851); assay: Inhibition of human GCK at 1.82 nM by HotSpot assay relative to control
T3 sequence (whole entry): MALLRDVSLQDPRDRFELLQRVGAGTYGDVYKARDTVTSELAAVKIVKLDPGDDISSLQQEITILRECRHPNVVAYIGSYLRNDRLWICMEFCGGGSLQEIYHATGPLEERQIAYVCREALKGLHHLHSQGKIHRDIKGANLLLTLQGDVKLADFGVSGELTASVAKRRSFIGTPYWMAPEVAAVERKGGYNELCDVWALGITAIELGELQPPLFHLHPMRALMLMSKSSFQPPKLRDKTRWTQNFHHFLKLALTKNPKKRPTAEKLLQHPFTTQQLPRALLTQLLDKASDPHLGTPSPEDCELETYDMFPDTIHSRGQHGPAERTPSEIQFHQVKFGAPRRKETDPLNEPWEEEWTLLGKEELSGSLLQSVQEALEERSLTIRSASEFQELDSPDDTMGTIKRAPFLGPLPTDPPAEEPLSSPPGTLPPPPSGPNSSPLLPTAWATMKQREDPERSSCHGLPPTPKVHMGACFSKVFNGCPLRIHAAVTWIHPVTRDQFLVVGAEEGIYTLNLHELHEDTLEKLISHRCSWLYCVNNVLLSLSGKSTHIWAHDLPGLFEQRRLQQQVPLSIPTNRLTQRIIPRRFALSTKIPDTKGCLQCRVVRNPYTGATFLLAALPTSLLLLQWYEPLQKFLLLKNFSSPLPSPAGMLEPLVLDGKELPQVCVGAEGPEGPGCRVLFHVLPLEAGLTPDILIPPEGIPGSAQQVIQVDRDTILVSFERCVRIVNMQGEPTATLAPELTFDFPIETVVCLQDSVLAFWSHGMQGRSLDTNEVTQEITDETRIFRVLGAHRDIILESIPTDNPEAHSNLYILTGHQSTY

[7] = biological target: Tyrosine-protein kinase Yes (Homo sapiens) (UniProt P07947); assay: Inhibition of human YES1 at 1.82 nM by HotSpot assay relative to control
Sequence of Tyrosine-protein kinase Yes (Homo sapiens) (P07947 2-543 limits assumed): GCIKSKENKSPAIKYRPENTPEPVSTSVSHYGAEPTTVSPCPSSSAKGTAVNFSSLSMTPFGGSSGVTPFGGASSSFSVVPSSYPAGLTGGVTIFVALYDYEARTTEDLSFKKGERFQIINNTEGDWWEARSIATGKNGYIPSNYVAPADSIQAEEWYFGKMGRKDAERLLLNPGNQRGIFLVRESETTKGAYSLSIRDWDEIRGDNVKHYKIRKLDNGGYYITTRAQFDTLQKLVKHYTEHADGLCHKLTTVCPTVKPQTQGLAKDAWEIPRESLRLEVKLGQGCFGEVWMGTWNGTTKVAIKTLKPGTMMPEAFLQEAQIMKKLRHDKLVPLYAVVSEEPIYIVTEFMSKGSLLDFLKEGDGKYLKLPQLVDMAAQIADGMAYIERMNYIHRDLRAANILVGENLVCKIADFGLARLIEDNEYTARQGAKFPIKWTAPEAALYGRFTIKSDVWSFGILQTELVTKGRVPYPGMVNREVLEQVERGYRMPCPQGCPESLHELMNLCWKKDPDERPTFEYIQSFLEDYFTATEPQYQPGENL

Sequence of Mitogen-activated protein kinase 14 (Homo sapiens) (Q16539 whole entry): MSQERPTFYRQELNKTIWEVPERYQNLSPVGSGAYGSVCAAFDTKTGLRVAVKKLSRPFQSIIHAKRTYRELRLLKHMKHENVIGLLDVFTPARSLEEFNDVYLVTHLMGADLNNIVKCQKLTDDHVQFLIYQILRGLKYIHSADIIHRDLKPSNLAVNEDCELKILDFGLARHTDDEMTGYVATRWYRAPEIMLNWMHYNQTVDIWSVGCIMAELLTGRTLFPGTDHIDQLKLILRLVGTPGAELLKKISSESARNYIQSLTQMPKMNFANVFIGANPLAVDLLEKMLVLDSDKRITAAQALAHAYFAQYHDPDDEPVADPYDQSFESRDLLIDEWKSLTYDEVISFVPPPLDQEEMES
Sequence of Serine/threonine-protein kinase PAK 1 (Homo sapiens) (Q13153 whole entry): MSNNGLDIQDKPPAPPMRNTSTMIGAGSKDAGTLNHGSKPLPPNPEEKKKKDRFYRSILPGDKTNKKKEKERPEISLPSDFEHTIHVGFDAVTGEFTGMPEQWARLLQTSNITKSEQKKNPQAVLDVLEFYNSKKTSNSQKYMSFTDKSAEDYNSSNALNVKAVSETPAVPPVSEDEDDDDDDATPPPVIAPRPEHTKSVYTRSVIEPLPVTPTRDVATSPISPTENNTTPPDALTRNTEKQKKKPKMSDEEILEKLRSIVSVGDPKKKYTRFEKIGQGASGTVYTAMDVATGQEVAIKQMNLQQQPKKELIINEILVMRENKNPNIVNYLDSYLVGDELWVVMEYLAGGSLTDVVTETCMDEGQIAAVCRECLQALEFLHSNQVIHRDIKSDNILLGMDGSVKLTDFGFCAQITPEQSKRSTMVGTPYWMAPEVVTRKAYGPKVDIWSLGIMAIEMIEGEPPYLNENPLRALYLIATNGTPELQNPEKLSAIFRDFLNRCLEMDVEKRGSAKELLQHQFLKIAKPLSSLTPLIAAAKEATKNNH
Sequence of Mitogen-activated protein kinase kinase kinase 7 (Homo sapiens) (O43318 whole entry, looked up): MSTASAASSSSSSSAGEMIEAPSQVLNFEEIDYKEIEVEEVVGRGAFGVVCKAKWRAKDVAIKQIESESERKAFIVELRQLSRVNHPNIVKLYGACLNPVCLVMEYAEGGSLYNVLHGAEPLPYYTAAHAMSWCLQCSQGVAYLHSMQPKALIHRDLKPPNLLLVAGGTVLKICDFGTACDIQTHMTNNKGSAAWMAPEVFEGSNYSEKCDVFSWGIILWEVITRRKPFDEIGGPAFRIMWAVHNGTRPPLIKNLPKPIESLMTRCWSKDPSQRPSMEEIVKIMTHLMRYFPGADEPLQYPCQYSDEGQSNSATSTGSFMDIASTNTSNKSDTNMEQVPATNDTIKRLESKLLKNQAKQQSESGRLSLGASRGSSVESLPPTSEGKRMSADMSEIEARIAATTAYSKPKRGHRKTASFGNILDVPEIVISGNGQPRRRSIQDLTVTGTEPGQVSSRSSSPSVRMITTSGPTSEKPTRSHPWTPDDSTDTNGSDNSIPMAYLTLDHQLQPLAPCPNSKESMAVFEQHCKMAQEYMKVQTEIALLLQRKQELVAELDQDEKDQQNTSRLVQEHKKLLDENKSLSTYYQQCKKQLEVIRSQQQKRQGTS

inhibition [1] [%]	inhibition [2] [%]	inhibition [3] [%]	inhibition [4] [%]	inhibition [5] [%]	inhibition [6] [%]	inhibition [7] [%]	Structure (SMILES)
1.98	-0.8						C[C@]1(O)C[C@@H](c2nc(-c3ccc4ccc(-c5ccccc5)nc4c3)c3c(N)nccn32)C1
		3.45	-2.94	-1.37	-0.04	5.36	C[C@@]1(C(=O)Nc2ccc(F)nc2)CCCN1c1nc(Nc2cc(C3CC3)n[nH]2)c2cccn2n1

— ChEMBL document CHEMBL5653615 (J Biol Chem, 2013)
